Each structure is given as a SMILES string.

EGFR, sequence (P00533 25-1210): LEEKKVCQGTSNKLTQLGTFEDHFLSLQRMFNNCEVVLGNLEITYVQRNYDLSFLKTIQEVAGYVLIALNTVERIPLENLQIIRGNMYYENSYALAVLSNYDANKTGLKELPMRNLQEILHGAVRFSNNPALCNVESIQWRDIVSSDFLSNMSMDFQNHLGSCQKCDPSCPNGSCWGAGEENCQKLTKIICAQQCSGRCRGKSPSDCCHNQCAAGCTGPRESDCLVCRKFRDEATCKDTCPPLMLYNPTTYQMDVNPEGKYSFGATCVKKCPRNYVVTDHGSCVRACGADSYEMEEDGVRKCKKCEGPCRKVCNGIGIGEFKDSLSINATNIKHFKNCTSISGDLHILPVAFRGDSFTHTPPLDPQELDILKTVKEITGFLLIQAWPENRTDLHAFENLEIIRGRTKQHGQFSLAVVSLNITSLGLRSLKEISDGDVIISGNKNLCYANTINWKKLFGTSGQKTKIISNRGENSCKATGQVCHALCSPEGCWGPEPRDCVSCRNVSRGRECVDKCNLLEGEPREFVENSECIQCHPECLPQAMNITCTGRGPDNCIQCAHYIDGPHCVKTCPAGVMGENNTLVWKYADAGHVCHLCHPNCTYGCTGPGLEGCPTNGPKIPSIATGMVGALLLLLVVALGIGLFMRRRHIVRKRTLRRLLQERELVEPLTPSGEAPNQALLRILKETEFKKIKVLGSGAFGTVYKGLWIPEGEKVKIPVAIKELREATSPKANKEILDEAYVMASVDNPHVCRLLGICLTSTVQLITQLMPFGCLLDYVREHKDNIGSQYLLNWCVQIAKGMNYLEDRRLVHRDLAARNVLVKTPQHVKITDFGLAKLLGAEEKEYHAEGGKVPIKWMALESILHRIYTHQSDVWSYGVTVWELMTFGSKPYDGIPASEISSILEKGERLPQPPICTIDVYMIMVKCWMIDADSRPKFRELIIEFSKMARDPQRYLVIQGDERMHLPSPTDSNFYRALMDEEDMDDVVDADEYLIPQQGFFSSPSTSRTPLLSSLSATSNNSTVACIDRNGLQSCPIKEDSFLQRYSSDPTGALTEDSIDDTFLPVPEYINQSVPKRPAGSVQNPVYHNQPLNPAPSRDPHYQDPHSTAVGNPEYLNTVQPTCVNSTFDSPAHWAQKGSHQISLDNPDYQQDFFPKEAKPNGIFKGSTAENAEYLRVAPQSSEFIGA

For the assay, the target named is EGFR (Homo sapiens, UniProt P00533). Description: EGFR assay (cellular ELISA, NIH 3T3/C7 cells). Conditions: read-out: cell EGF IC50. The class given is cell-based. Details: expressed in transfected cells; host or cells: NIH 3T3/C7. The essentials:
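NIH 3T3/C7 cells expressing human EGFR, serum-starved (0.5% serum) ~40 h, treated with compound (1:200 of 10 mg/ml DMSO stock, 1% DMSO) then stimulated 5 min with 25 nM EGF. Lysate EGFR captured by antibody and phosphotyrosine detected by anti-Ptyr ELISA (OD 410 nm); % inhibition after negative-control subtraction.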
On the technique in general: In an ELISA, binding on a coated surface is turned into a signal by an enzyme label.
As a reminder, the IC50 is the concentration at which inhibition is half-maximal. On to `CNC(=O)CCc1c(/C=C2\C(=O)Nc3ccccc32)[nH]c2c1CCCC2` [Example 201, N-Methyl-3-[2-(2-oxo-1,2-dihydroindol-3-ylidenemethyl)-4,5,6,7-tetrahydro-1H-indol-3-yl]-propionamide], for which the 50% inhibitory concentration (IC50) is more than 100 µM.

For the compound `O=C1Nc2ccc(N=Cc3cc4ccccc4[nH]3)cc2C1=Cc1cc2ccccc2[nH]1` [Example 171, 3-(1H-indol-2-ylmethylene)-5-[(1H-indol-2-ylmethylene)-amino]-1,3-dihydroindol-2-one], the 50% inhibitory concentration (IC50) is more than 100 µM.

In the case of `O=C(O)CCc1c(/C=C2\C(=O)Nc3ncccc32)[nH]c2c1CCCC2` [Example 203, 3-[2-(2-Oxo-1,2-dihydropyrrolo[2,3-b]pyridin-3-ylidenemethyl)-4,5,6,7-tetrahydro-1H-indol-3-yl]-propionic acid], the IC50 was more than 12.5 µM.

In the case of `O=C(CCc1c(/C=C2\C(=O)Nc3ccccc32)[nH]c2c1CCCC2)NCCN1CCOCC1` [Example 202, N-(2-Morpholin-4-ylethyl)-3-[2-(2-oxo-1,2-dihydroindol-3-ylidenemethyl)-4,5,6,7-tetrahydro-1H-indol-3-yl]-propionamide], the IC50 is more than 100 µM.

On to `O=C(O)CCc1c(/C=C2\C(=O)Nc3cc(Cl)ccc32)[nH]c2c1CCCC2` [Example 195, 3-[2-(6-Chloro-2-oxo-1,2-dihydroindol-3-ylidenemethyl)-4,5,6,7-tetrahydro-1H-indol-3-yl]-propionic acid], for which the IC50 was more than 100 µM.

On to `Cc1c(/C=C2\C(=O)Nc3ccc(N)cc32)[nH]c2ccccc12` [Example 180, 5-Amino-3-(3-methyl-1H-indol-2-ylmethylene)-1,3-dihydroindol-2-one], for which the half-inhibitory concentration (IC50) is more than 100 µM.

As for `COc1cccc(-c2ccc3c(c2)NC(=O)/C3=C\c2[nH]c3c(c2CCC(=O)O)CCCC3)c1` [Example 204, 3-{2-[6-(3-Methoxyphenyl)-2-oxo-1,2-dihydro-indol-3-ylidenemethyl]-4,5,6,7-tetrahydro-1H-indol-3-yl}-propionic acid], the half-maximal inhibitory concentration (IC50) is more than 100 µM.

Consider `CNS(=O)(=O)c1ccc2c(c1)/C(=C/c1cc3ccccc3[nH]1)C(=O)N2` [Example 173, 3-(1H-Indol-2-ylmethylene)-2-oxo-2,3-dihydro-1H-indole-5-sulfonic acid methylamide], for which the half-maximal inhibitory concentration (IC50) was more than 100 µM.

Consider `O=C1Nc2ccc(C(=O)O)cc2/C1=C/c1ccc2[nH]ccc2c1` [Example 177, 3-(1H-Indol-5-ylmethylene)-2-oxo-2,3-dihydro-1H-indole-5-carboxylic acid], for which the half-maximal inhibitory concentration (IC50) is more than 100 µM.

Regarding `NS(=O)(=O)c1ccc2c(c1)/C(=C/c1c[nH]c3ccccc13)C(=O)N2` [Example 172, 3-(1H-Indol-3-ylmethylene)-2-oxo-2,3-dihydro-1H-indole-5-sulfonic acid amide], the IC50 was more than 100 µM.

Take `COc1c(C(C)C)cc(/C=C2/C(=O)Nc3ccc(Cl)cc32)cc1C(C)C` [Example 2, 5-Chloro-3-(3,5-diisopropyl-4-methoxybenzylidene)-1,3-dihydroindol-2-one]: the IC50 is more than 100 µM.

Regarding `O=C1Nc2ccc(C(=O)O)cc2/C1=C/c1c[nH]c2ccccc12` [Example 174, 3-(1H-Indol-3-ylmethylene)-2-oxo-2,3-dihydro-1H-indole-5-carboxylic acid], the half-maximal inhibitory concentration (IC50) is more than 100 µM.

For `COc1ccc2c(c1)NC(=O)/C2=C\c1[nH]cc(C)c1CCC(=O)O` [Example 217, 3-[2-(6-Methoxy-2-oxo-1,2-dihydroindol-3-ylidenemethyl)-4-methyl-1H-pyrrol-3-yl]-propionic acid], the IC50 is more than 100 µM.

On to `Cc1c[nH]c(/C=C2\C(=O)Nc3ccccc32)c1CCC(=O)O` [Example 215, 3-[4-Methyl-2-(2-oxo-1,2-dihydroindol-3-ylidenemethyl)-1H-pyrrol-3-yl]-propionic acid], for which the IC50 is more than 100 µM.

Regarding `Cc1c[nH]c(/C=C2\C(=O)Nc3ccc(Cl)cc32)c1CCC(=O)O` [Example 216, 3-[2-(5-Chloro-2-oxo-1,2-dihydroindol-3-ylidenemethyl)-4-methyl-1H-pyrrol-3-yl]-propionic acid], the IC50 was more than 100 µM.

With `O=C1Nc2ccccc2/C1=C/c1[nH]c2c(c1CCC(=O)N1CCOCC1)CCCC2` [Example 200, 3-[3-(3-Morpholin-4-yl-3-oxopropyl)-4,5,6,7-tetrahydro-1H-indol-2-ylmethylene]-1,3-dihydroindol-2-one], the IC50 is more than 100 µM.

Regarding `CN(C)CCCc1c(/C=C2\C(=O)Nc3ccccc32)[nH]c2c1CCCC2` [Example 198, 3-[3-(3-Dimethylaminopropyl)-4,5,6,7-tetrahydro-1H-indol-2-ylmethylene]-1,3-dihydroindol-2-one], the IC50 was more than 100 µM.

Regarding `CC(C)NS(=O)(=O)c1ccc2c(c1)C(=Cc1[nH]c3c(c1CCC(=O)O)CCCC3)C(=O)N2` [Example 208, 3-[2-(5-Isopropylaminosulfonyl-2-oxo-1,2-dihydroindol-3-ylidenemethyl)-4,5,6,7-tetrahydro-1H-indol-3-yl]-propionic acid], the IC50 was more than 100 µM.

With `CN(C)C(=O)CCc1c(/C=C2\C(=O)Nc3ccccc32)[nH]c2c1CCCC2` [Example 197, N,N-Dimethyl-3-[2-(2-oxo-1,2-dihydroindol-3-ylidenemethyl)-4,5,6,7-tetrahydro-1H-indol-3-yl]-propionamide], the IC50 is more than 100 µM.

As for `Cc1c[nH]c(C=C2C(=O)Nc3cc(Cl)ccc32)c1CCC(=O)O` [Example 219, 3-[2-(6-Chloro-2-oxo-1,2-dihydroindol-3-ylidenemethyl)-4-methyl-1H-pyrrol-3-yl]-propionic acid], the IC50 is more than 100 µM.

Regarding `Cc1cc(CCC(=O)O)c(/C=C2\C(=O)Nc3ccc(Br)cc32)[nH]1` [Compound 116, 3-[2-(5-Bromo-2-oxo-1,2-dihydroindol-3-ylidenemethyl)-5-methyl-1H-pyrrol-3-yl]-propionic acid], the IC50 was more than 100 µM.

Regarding `COc1ccc2c(c1)/C(=C/c1[nH]cc(C)c1CCC(=O)O)C(=O)N2` [Example 222, 3-[2-(5-Methoxy-2-oxo-1,2-dihydroindol-3-ylidenemethyl)-4-methyl-1H-pyrrol-3-yl]-propionic acid], the IC50 was more than 100 µM.

Take `Cc1[nH]c2ccccc2c1/C=C1\C(=O)Nc2ccc(C(=O)O)cc21` [Example 182, 3-(2-Methyl-1H-indol-3-ylmethylene)-2-oxo-2,3-dihydro-1H-indole-5-carboxylic acid]: the concentration for half-maximal inhibition (IC50) is more than 100 µM.

In the case of `O=C(O)CCc1ccccc1/C=C1/C(=O)Nc2ccccc21` [Example 214, 3-[2-(2-Oxo-1,2-dihydroindol-3-ylidenemethyl)-phenyl]-propionic acid], the IC50 is more than 100 µM.

Take `Nc1ccc2c(c1)/C(=C/c1ccc3[nH]ccc3c1)C(=O)N2` [Example 179, 5-Amino-3-(1H-indol-5-ylmethylene)-1,3-dihydro-indol-2-one]: the IC50 was more than 100 µM.

Regarding `NC(=O)CCc1c(/C=C2\C(=O)Nc3ccccc32)[nH]c2c1CCCC2` [Example 199, 3-[2-(2-Oxo-1,2-dihydroindol-3-ylidenemethyl)-4,5,6,7-tetrahydro-1H-indol-3-yl]-propionamide], the concentration for half-maximal inhibition (IC50) is more than 100 µM.

Regarding `CCOC(=O)c1c(C)[nH]c(/C=C2\C(=O)Nc3ccc(Br)cc32)c1CCC(=O)O` [Compound 114, 5-(5-Bromo-2-oxo-1,2-dihydroindol-3-ylidenemethyl)-4-(2-carboxyethyl)-2-methyl-1H-pyrrole-3-carboxylic acid ethyl ester], the IC50 was more than 100 µM.

In the case of `O=C(O)CCc1c(/C=C2\C(=O)Nc3ccc(Cl)cc32)[nH]c2c1CCCC2` [Example 191, 3-[2-(5-Chloro-2-oxo-1,2-dihydroindol-3-ylidenemethyl)-4,5,6,7-tetrahydro-1H-indol-3-yl]-propionic acid], the IC50 is more than 100 µM.

For the compound `Cc1[nH]c2ccccc2c1/C=C1\C(=O)Nc2ccc(N)cc21` [Example 187, 5-Amino-3-(2-methyl-1H-indol-3-ylmethylene)-1,3-dihydroindol-2-one], the IC50 was more than 100 µM.

`COc1c(C(C)C)cc(/C=C2/C(=O)Nc3ccccc32)cc1C(C)C` [Example 1, 3-(3,5-Diisopropyl-4-methoxybenzylidene)-1,3-dihydroindol-2-one]: the IC50 was determined as 45.7 µM.
